From patent US6900198B2, “Synthetic catalytic free radical scavengers useful as antioxidants for prevention and therapy of disease” (Eukarion, Inc., priority 1995, dated 2005)
pIC50: −log10 of the molar value.

Legend:
Hippocampal slices = assay: Lactic acid (acidosis)-induced lipid peroxidation in hippocampal slices; format: cell-based, Sprague-Dawley rats; conditions: 50 μM; 30 mM lactate, pH 5.0, 100 minutes
Protocol: Hippocampal slices (400 μm thick) were obtained from Sprague-Dawley rats (150-200 g) and collected in preoxygenated (95% O2/5% CO2) Krebs-Ringer phosphate medium (pH 7.4) containing NaCl 120 mM, KCl 5 mM, CaCl2 1.3 mM, MgCl2 1.2 mM, NaPhosphate 16 mM (pH 7.4) and glucose 10 mM. After 15 minutes preincubation in a water bath at 35° C. under agitation, the buffer was replaced with the same buffer (control) or a modified buffer (lactate buffer) containing NaCl 90 mM, KCl 5 mM, CaCl2 1.3 mM, MgCl2 1.2 mM, NaPhosphate 16 mM and lactic acid 30 mM (pH 5.0). […] After 100 minutes, slices were collected and homogenized in 0.9 ml of TCA 5%, whereas 0.35 ml of TCA 5% was added to 0.5 ml of the incubation medium. Lipid peroxidation was measured by adding 0.25 ml of a thiobarbituric acid reagent (TBAR) to 0.85 ml of the TCA extracts and incubating the mixture for 60 minutes at 85-93° C. Lipids were then extracted with 2×0.5 ml 1-butanol by vortexing for 10 seconds, then centrifuging at 2,000 rpm for 10 minutes. The absorbance of peroxidized lipids in the alcohol phase was measured in a spectrophotometer at 532 nm. Data were expressed as nmoles of malondialdehyde (MDA) using authentic MDA to establish a standard curve. Proteins were measured from an aliquot of the TCA extracts using the method of Bradford and the final results were calculated as nmoles MDA formed/mg protein. […]

[1] = SOD activity, cytochrome c as acceptor, IC50 (Example 2); format: biochemical; conditions: read-out: SOD activity IC50 (half-maximally active concentration)
Protocol: Superoxide dismutase (SOD) activity was assayed by following the inhibition of the reduction of an electron acceptor molecule in the presence of the free-radical generating system xanthine/xanthine oxidase (McCord et al. (1973) Superoxide and Superoxide Dismutase in “Oxidases and Related Redox Systems, vol. I, King et al. eds., University Park press, Baltimore, pp. 51-76). The assay mixture consisted of 50 mM sodium phosphate, pH 7.8, 120 μM xanthine, 0.2 units/ml xanthine oxidase, with acceptor molecule and salen manganese compound, as indicated. Assays were conducted at 27±0.2° C. using a water-jacketed cell holder in a Beckman DU7400 spectrophotometer. In most cases, oxidized cytochrome c, at 0.13 mg/ml, was employed as acceptor and its reduction was monitored spectrophotometrically at 550 nm. In some experiments, nitroblue tetrazolium (NBT), at 80 μM, was substituted for cytochrome c as the acceptor. NBT reduction was also monitored at 550 nm. An estimated extinction coefficient for NBT reduction, 20,800 M^−1cm^−1, determined empirically by exhaustive reduction of NBT in the reaction mixture described above, was employed where indicated. This value agreed well with reported extinction coefficients for reduced tetrazolium dyes. […] Conversion of xanthine to urate was calculated using ε290's of […] for urate and 4050 M^−1cm^−1 for xanthine. […]

[2] = Peroxidase activity, H2O2-dependent oxidation of ABTS; format: biochemical; conditions: C7 with 29 units/ml bovine liver catalase, 10 mM H2O2
Protocol: Peroxidase activity was assayed by monitoring the hydrogen peroxide-dependent oxidation of 2,2′-azino-bis(3-ethylbenzthiazoline-6) sulfonic acid (ABTS) spectrophotometrically. Standard assay mixtures consisted of 50 mM sodium phosphate, pH 8.1, 0.9% sodium chloride, 0.5 mM ABTS, and H2O2 and salen manganese complex as indicated. Where indicated, 50 mM sodium phosphate buffers of pH 6.0 or pH 7.1 were substituted. Assays were conducted at 27±0.2° C. ABTS oxidation was monitored at 740 or 500 nm to eliminate interference by the salen manganese complexes, many of which absorb in the vicinity of the λmax of oxidized ABTS, and to avoid absorbance values that exceeded the linear range of the spectrophotometer. The amount of oxidized ABTS was estimated using an Δε740 of 20,300 M^−1cm^−1 or an Δε500 of 3400 M^−1cm^−1 calculated based upon the published molar extinction coefficient oat 405 nm (36,800).
Compounds were assayed for SOD as described under Experimental procedures, using cytochrome C as acceptor. The concentration of each compound showing half-maximal activity in this assay is presented. Catalase and peroxidase activities were conducted as described under Experimental Procedures, with 10 μM salen manganese complex. The H2O2 concentration was 10 mM and 0.2 mM in the catalase and peroxidase assays, respectively. Where denoted, “nd” means that the assay was not performed on this compound.
Catalase and peroxidase activities were assayed as described in Example 2. Catalase assays contained 10 μM salen-manganese complex and 10 mM hydrogen peroxide. Peroxidase assays contained 10 μM salen-manganese complex and 0.2 mM hydrogen peroxide. Glucose-glucose oxidase toxicity assays were performed using human dermal fibroblasts as described in Example 2.

[Cl][Mn]1[O]c2ccccc2C=NCCN=Cc2ccccc2[O]1 [Compound C7]
lactate-induced increase in lipid peroxidation (malondialdehyde) (Hippocampal slices): totally abolished the increase in lipid peroxidation | pIC50 [1]: 5.49 | total ABTS oxidized in the presence of added catalase [2]: 18 µM
